Data published in patent US20080268028A1, “Lyophilization of virosomes” (Pevion Biotech Ltd., priority 2004, published 2008).

Test: Virosomal fusion activity before and after lyophilization (FRET assay)
Settings: cationic lipid as integral virosomal membrane component; after lyophilization and reconstitution
Method: FRET Assay: For in vitro fusion measurements by fluorescence resonance energy transfer (FRET) (Struck et al., Biochemistry 20(14):4093-99, 1981; Loyter et al., Methods Biochem. Anal. 33:129-64, 1988), the following assay was developed: 0.75 mol % of Bodipy 530/550-DHPE and 0.25 mol % of N-Rh-DHPE were incorporated into liposomes consisting of PC/DPPG (70:30). Fluorescence measurements were carried out at discrete temperatures between 4° C. and 42° C. in 5 mM sodium phosphate buffer pH 7.5, 100 mM NaCl, in a final volume of 0.8 ml in 2.5 ml PMMA micro-cuvettes (VWR, Switzerland) under continuous stirring. […] The increase in fluorescence was recorded every 5 seconds at excitation and emission wavelengths of 538 nm and 558 nm, respectively, with an excitation slit of 2.5 nm and an emission slit of 15.0 nm. Measurements were carried out with an LS 55 Luminescence spectrometer (Perkin Elmer Instruments, USA) equipped with a thermostated cuvette holder and a magnetic stirring device. The maximal fluorescence at infinite probe dilution was reached after addition of Triton X-100 (0.5% v/v final concentration). For calibration of the fluorescence scale the initial residual fluorescence of the liposomes was set to zero and the fluorescence at infinite probe dilution to 100%.

SMILES	preservation of virosomal fusion-activity
CC(C)CCC[C@@H](C)[C@H]1CC[C@H]2[C@@H]3CC=C4C[C@@H](OC(=O)NCCN(C)C)CC[C@]4(C)[C@H]3CC[C@]12C.Cl [DC-Chol, 3β[N-(N′,N′-dimethylammonioethane)-carbamoyl]cholesterol chloride]	superior properties in preserving virosomal fusion-activity
CC(C)CCC[C@@H](C)[C@H]1CC[C@H]2[C@@H]3CC=C4C[C@@H](OC(=O)NCC[N+](C)(C)C)CC[C@]4(C)[C@H]3CC[C@]12C.[Cl-] [TC-Chol, 3β[N-(N′,N′,N′-trimethylammonioethane)-carbamoyl]cholesterol chloride]	superior properties in preserving virosomal fusion-activity
